The results in this text go back to patent publication US6013795A, “Alpha-branched fluoroalkylcarbonyl fluorides and their derivatives” (3M Innovative Properties Company, priority 1996, dated 2000).

A short description of the first data set: surface tension of aqueous surfactant solutions and critical micelle concentration (K-12 Processor Tensiometer). It counts as physicochemical. To be noted: carboxylate salts, deionized water; Table 5.
Text: Critical Micelle Concentration (CMC): The critical micelle concentration is defined as the concentration at which further surface tension is no longer lowered with increasing levels of surfactant. […] Surface tension is then plotted vs. log concentration and the data points are connected. The resulting curve has a nearly horizontal flat portion at concentrations above the CMC and has a negative steep slope at concentrations below the CMC. The CMC is defined as the lowest surfactant concentration in the horizontal flat portion of the curve.
(§1) Then the critical micelle concentration (CMC) was determined for each surfactant.
as §1
For `O=C(O)C(F)(C(F)(F)F)C(F)(F)C(F)(F)C(F)(F)C(F)(F)C(F)(F)C(F)(F)F` (stereo not shown) [Example M16, C6 F13 CF(CF3)COO^- H4 N^+], the CMC amounted to 8000 ppm and the “Surf. Tens. at the CMC” value stood at 17.9 dynes/cm.
Regarding `O=C(O)C(F)(C(F)(F)F)C(F)(F)C(F)(F)C(F)(F)C(F)(F)C(F)(F)C(F)(F)C(F)(F)F` (stereo not shown) [Example M30, C7 F15 CF(CF3)COO^- 1/2 [H3 N^+ C2 H4 NHC2 H4 N^+ H3]], the CMC is recorded as 3000 ppm and the “Surf. Tens. at the CMC” value came to 16.2 dynes/cm.
As for `O=C(O)C(F)(C(F)(F)F)C(F)(F)C(F)(F)C(F)(F)C(F)(F)C(F)(F)C(F)(F)F` (stereo not shown) [Example M25, C6 F13 CF(CF3)COO^- Na^+], the CMC is 10000 ppm and the “Surf. Tens. at the CMC” value was 19.8 dynes/cm.
For `O=C(O)C(F)(C(F)(F)F)C(F)(F)C(F)(F)C(F)(F)C(F)(F)C(F)(F)C(F)(F)C(F)(F)C(F)(F)C(F)(F)C(F)(F)F` (stereo not shown) [Example M18, C10 F21 CF(CF3)COO^- H4 N^+], the CMC is given as 600 ppm and the “Surf. Tens. at the CMC” value came to 14.8 dynes/cm.
On to `O=C(O)C(F)(C(F)(F)F)C(F)(F)C(F)(F)C(F)(F)C(F)(F)C(F)(F)F` (stereo not shown) [Example M15, C5 F11 CF(CF3)COO^- H4 N^+], for which the CMC is greater than 10000 ppm and the “Surf. Tens. at the CMC” value was found to be 22.1 dynes/cm.
The like results for `O=C(O)C(F)(C(F)(F)F)C(F)(F)C(F)(F)C(F)(F)C(F)(F)C(F)(F)C(F)(F)C(F)(F)F` (stereo not shown) [Example M26, C7 F15 CF(CF3)COO^- Na^+] were, in that order, 3000 ppm and 19.4 dynes/cm.
The like results for `O=C(O)C(F)(C(F)(F)F)C(F)(F)C(F)(F)C(F)(F)C(F)(F)C(F)(F)C(F)(F)C(F)(F)F` (stereo not shown) [Example M23, C7 F15 CF(CF3)COO^- K^+] were, in that order, 2500 ppm and 15.0 dynes/cm.
In the case of `O=C(O)C(F)(C(F)(F)F)C(F)(F)C(F)(F)C(F)(F)C(F)(F)C(F)(F)C(F)(F)C(F)(F)F` (stereo not shown) [Example M27, C7 F15 CF(CF3)COO^- Li^+], the CMC stood at 3500 ppm and the “Surf. Tens. at the CMC” value is 24.1 dynes/cm.
Regarding `O=C(O)C(F)(C(F)(F)F)C(F)(F)C(F)(F)C(F)(F)C(F)(F)C(F)(F)C(F)(F)C(F)(F)C(F)(F)F` (stereo not shown) [Example M17, C8 F17 CF(CF3)COO^- H4 N^+], the CMC amounted to 2300 ppm and the “Surf. Tens. at the CMC” value amounted to 14.7 dynes/cm.
Regarding `O=C(O)C(F)(C(F)(F)F)C(F)(F)C(F)(F)C(F)(F)C(F)(F)C(F)(F)C(F)(F)C(F)(F)C(F)(F)F` (stereo not shown) [Example M24, C8 F17 CF(CF3)COO^- K^+], the CMC was 3000 ppm and the “Surf. Tens. at the CMC” value was determined as 16.4 dynes/cm.
Turning to `O=C(O)C(F)(C(F)(F)F)C(F)(F)C(F)(F)C(F)(F)C(F)(F)C(F)(F)F` (stereo not shown) [Example M21, C5 F11 CF(CF3)COO^- K^+], the CMC is listed as greater than 10000 ppm and the “Surf. Tens. at the CMC” value is recorded as 22.5 dynes/cm.
Regarding `O=C(O)C(F)(C(F)(F)F)C(F)(F)C(F)(F)C(F)(F)C(F)(F)C(F)(F)C(F)(F)F` (stereo not shown) [Example M22, C6 F13 CF(CF3)COO^- K^+], the CMC is 10000 ppm and the “Surf. Tens. at the CMC” value came to 17.5 dynes/cm.

Still in this data set, the particulars now being: deionized water; Table 3.
Regarding `C[n+]1ccc(C(=O)NCCOC(=O)C(F)(C(F)(F)F)C(F)(F)C(F)(F)C(F)(F)C(F)(F)C(F)(F)C(F)(F)C(F)(F)F)cc1` (stereo not shown) [Example F1], the CMC was 500 ppm and the “Surf. Tens. at the CMC” value amounted to 15.0 dynes/cm.
As for `C[N+](C)(CCCN(CCC[N+](C)(C)CCC(=O)[O-])C(=O)C(F)(C(F)(F)F)C(F)(F)C(F)(F)C(F)(F)C(F)(F)C(F)(F)C(F)(F)C(F)(F)F)CCC(=O)[O-]` (stereo not shown) [Example K4], the CMC is reported as 100 ppm and the “Surf. Tens. at the CMC” value came out at 23.6 dynes/cm.
For `C[N+](C)(CCCNC(=O)C(F)(C(F)(F)F)C(F)(F)C(F)(F)C(F)(F)C(F)(F)C(F)(F)C(F)(F)C(F)(F)F)CCC(=O)[O-]` (stereo not shown) [Example K1, C7 F15 CF(CF3)CONH(CH2)3 N^+ (CH3)2 C2 H4 COO^-], the “Surf. Tens. at the CMC” value came to 16.6 dynes/cm.
Take `C[N+](C)([O-])CCCNC(=O)C(F)(C(F)(F)F)C(F)(F)C(F)(F)C(F)(F)C(F)(F)C(F)(F)C(F)(F)C(F)(F)C(F)(F)C(F)(F)C(F)(F)F` (stereo not shown) [Example E5, C10 F21 CF(CF3)CONH(CH2)3 N^+ (CH3)2 O^-]: the CMC was found to be 500 ppm and the “Surf. Tens. at the CMC” value amounted to 17.1 dynes/cm.
Take `O=C(OCCc1cccc[n+]1[O-])C(F)(C(F)(F)F)C(F)(F)C(F)(F)C(F)(F)C(F)(F)C(F)(F)C(F)(F)F` (stereo not shown) [Example E12]: the CMC worked out at 8000 ppm and the “Surf. Tens. at the CMC” value amounted to 18.3 dynes/cm.
With `O=C([O-])CC[N+]1(CCCNC(=O)C(F)(C(F)(F)F)C(F)(F)C(F)(F)C(F)(F)C(F)(F)C(F)(F)C(F)(F)C(F)(F)F)CCOCC1` (stereo not shown) [Example K3], the CMC was 1000 ppm and the “Surf. Tens. at the CMC” value is given as 19.2 dynes/cm.
As for `C[n+]1ccc(C(=O)NCCOC(=O)C(F)(C(F)(F)F)C(F)(F)C(F)(F)C(F)(F)C(F)(F)C(F)(F)C(F)(F)F)cc1` (stereo not shown) [Example F2], the CMC came to 30 ppm and the “Surf. Tens. at the CMC” value is 15.5 dynes/cm.
Turning to `C[N+](C)([O-])CCCNC(=O)C(F)(C(F)(F)F)C(F)(F)C(F)(F)C(F)(F)C(F)(F)C(F)(F)C(F)(F)F` (stereo not shown) [Example E3, C6 F13 CF(CF3)CONH(CH2)3 N^+ (CH3)2 O^-], the CMC is 100 ppm and the “Surf. Tens. at the CMC” value was 16.6 dynes/cm.
With `C[N+](C)([O-])CCCN(CCO)C(=O)C(F)(C(F)(F)F)C(F)(F)C(F)(F)C(F)(F)C(F)(F)C(F)(F)C(F)(F)C(F)(F)F` (stereo not shown) [Example E8, C7 F15 CF(CF3)CON(C2 H4 OH)(CH2)3 N^+ (CH3)2 O^-], the “Surf. Tens. at the CMC” value is given as 16.6 dynes/cm.
Consider `C[N+](C)([O-])CCCNC(=O)C(F)(C(F)(F)C(F)(F)C(F)(F)F)C(F)(F)C(F)(F)C(F)(F)C(F)(F)C(F)(F)C(F)(F)C(F)(F)F` (stereo not shown) [Example E7, C7 F15 CF(C3 F7)CONH(CH2)3 N^+ (CH3)2 O^-], for which the “solubility remark” value is “low solub”.
Regarding `C[N+](C)(CCO)CCCNC(=O)C(F)(C(F)(F)F)C(F)(F)C(F)(F)C(F)(F)C(F)(F)C(F)(F)C(F)(F)C(F)(F)F` (stereo not shown) [Example F4], the CMC was 300 ppm and the “Surf. Tens. at the CMC” value stood at 19.0 dynes/cm.
Turning to `C[N+](C)([O-])CCCNC(=O)C(F)(C(F)(F)F)C(F)(F)C(F)(F)C(F)(F)C(F)(F)C(F)(F)C(F)(F)C(F)(F)C(F)(F)F` (stereo not shown) [Example E4, C8 F17 CF(CF3)CONH(CH2)3 N^+ (CH3)2 O^-], the CMC was determined as 20 ppm and the “Surf. Tens. at the CMC” value came to 16.5 dynes/cm.
As to `O=C(NCCOC(=O)C(F)(C(F)(F)F)C(F)(F)C(F)(F)C(F)(F)C(F)(F)C(F)(F)C(F)(F)C(F)(F)F)c1cc[n+]([O-])cc1` (stereo not shown) [Example E10], the CMC came to 400 ppm and the “Surf. Tens. at the CMC” value was 14.5 dynes/cm.
Regarding `C[N+](C)([O-])CCCNC(=O)C(F)(C(F)(F)F)C(F)(F)C(F)(F)C(F)(F)C(F)(F)C(F)(F)C(F)(F)C(F)(F)F` (stereo not shown) [Example E1, C7 F15 CF(CF3)CONH(CH2)3 N^+ (CH3)2 O^-], the CMC amounted to 20 ppm and the “Surf. Tens. at the CMC” value is 16.3 dynes/cm.
